Source: patent publication US20220089578A1, “COMPOUNDS AS GLP-1R AGONISTS” (Terns Pharmaceuticals, Inc., priority 2020, published 2022)

Target: human GLP-1R (Homo sapiens, UniProt P43220)
Test: GLP-1R Cell Assay 1: cAMP Hunter CHO-K1 GLP1R Gs cell line, HitHunter cAMP assay
Assay type: cell-based
Conditions: cAMP Hunter CHO-K1 GLP1R Gs cells, percent activity normalized to Exendin-4
Description: GLP-1R mediated agonist activity was determined using the cAMP Hunter CHO-K1 GLP1R Gs cell line (DiscoverX, cat# 95-0062C2), a stable CHO-K1 derived cell lines overexpressing naturally Gs coupled wild-type human GLP-1R (accession number: NM_002062.3). GLP-1R agonism in this cell line was detected by measuring cellular cAMP levels using the HitHunter cAMP assay kit (cat# 90-0075SM2), a homogenous, gain-of-signal competitive immune assay based on Enzyme Fragment Complementation (EFC) technology. In this system cellular cAMP competes with exogenous labeled cAMP (ED-cAMP) for binding to an anti-cAMP antibody. […] The luminescent signal is directly proportional to the amount of cellular cAMP.
For compound testing, cells were seeded in a total volume of 20 μL in white walled, 384-well microplates and incubated at 37° C. prior to compound testing. Prior to compound addition, cell culture media was removed by aspiration and replaced with 15 pt reagent buffer (2:1 HBSS/10 mM HEPES: cAMP XS+Ab reagent). Compounds were dissolved in DSMO and serially diluted (3-fold) prior to final dilution to 4X in assay buffer. Samples (5 μL) were added to cells and incubated at 37° C. for […] prior to 1 hour incubation with 20 pt cAMP XS+ED/CL lysis reagent and 3 hour incubation with 20 μL cAMP XS+EA reagent at room temperature. Microplates were read on a PerkinElmer Envision instrument. Compound activity was analyzed using CBIS data analysis suite (ChemInnovation). Percent activity was calculated based on duplicate assay runs and normalized to the positive control Exendin-4, a GLP-1R peptide agonist, using the following formula: […]
The effective compound concentration resulting in 50% response (EC50) was determined by non-linear regression analysis of dose-response curves.

human GLP-1R, sequence (P43220 24-463): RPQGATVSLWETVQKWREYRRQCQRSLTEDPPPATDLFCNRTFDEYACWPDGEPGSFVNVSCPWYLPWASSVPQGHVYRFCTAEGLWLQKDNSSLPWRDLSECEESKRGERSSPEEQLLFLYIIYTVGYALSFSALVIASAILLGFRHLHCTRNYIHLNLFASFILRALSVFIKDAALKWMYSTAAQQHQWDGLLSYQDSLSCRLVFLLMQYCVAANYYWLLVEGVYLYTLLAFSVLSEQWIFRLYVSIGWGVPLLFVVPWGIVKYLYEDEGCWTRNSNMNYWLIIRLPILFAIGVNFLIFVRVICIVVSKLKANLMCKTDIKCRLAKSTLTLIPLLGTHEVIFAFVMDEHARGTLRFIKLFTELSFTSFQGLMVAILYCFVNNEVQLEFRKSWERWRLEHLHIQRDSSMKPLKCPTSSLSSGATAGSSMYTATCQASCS

EC50 (Table 3) [nM]	EC50 (Table 2) [nM]	SMILES
0.9		N#Cc1ccc(COc2cccc(N3CCN(Cc4nc5ccc(C(=O)O)cc5n4C[C@@H]4CCO4)CC3)c2)c(F)c1 [Compound 150, (S)-2-((4-(3-((4-cyano-2-fluorobenzyl)oxy)phenyl)piperazin-1-yl)methyl)-1-(oxetan-2-ylmethyl)-1H-benzo[d]imidazole-6-carboxylic acid]
	> 500	C[C@@]1(c2cccc(OCc3ccc(C#N)cc3F)n2)CCN(Cc2nc3ccc(C(=O)O)cc3n2C[C@@H]2CCO2)C1 (single isomer, unassigned) [Compound 20-P1]
	0.998	O=C(O)c1ccc2nc(CN3CCN(c4cccc(OCc5cc6ccccc6s5)n4)CC3)n(C[C@@H]3CCO3)c2c1 [Compound 65, (S)-2-((4-(6-(benzo[b]thiophen-2-ylmethoxy)pyridin-2-yl)piperazin-1-yl)methyl)-1-(oxetan-2-ylmethyl)-1H-benzo[d]imidazole-6-carboxylic acid]
	185	CC(C)c1cn(C2CCN(Cc3nc4ccc(C(=O)O)cc4n3C[C@@H]3CCO3)CC2)nc1OCc1ccc(C#N)cc1F [Compound 118, (S)-2-((4-(3-((4-cyano-2-fluorobenzyl)oxy)-4-isopropyl-1H-pyrazol-1-yl)piperidin-1-yl)methyl)-1-(oxetan-2-ylmethyl)-1H-benzo[d]imidazole-6-carboxylic acid]
	152	O=C(O)c1ccc2nc3n(c2c1)CCOC[C@@H]3N1CCC(c2cccc(OCc3ccccc3)n2)CC1 [Compound 94, (R)-5-(4-(6-(benzyloxy)pyridin-2-yl)piperidin-1-yl)-1,2,4,5-tetrahydrobenzo[4,5]imidazo[1,2-d][1,4]oxazepine-9-carboxylic acid]
	22.9	CCc1cn(C2CCN(Cc3nc4ccc(C(=O)O)cc4n3C[C@@H]3CCO3)CC2)nc1OCc1ccc(C#N)cc1F [Compound 124, (S)-2-((4-(3-((4-cyano-2-fluorobenzyl)oxy)-4-ethyl-1H-pyrazol-1-yl)piperidin-1-yl)methyl)-1-(oxetan-2-ylmethyl)-1H-benzo[d]imidazole-6-carboxylic acid]
	42.3	O=C(O)c1ccc2nc(CN3CCN(c4cccc(NCc5ccccc5)n4)CC3)n(C[C@@H]3CCO3)c2c1 [Compound 55, (S)-2-((4-(6-(benzylamino)pyridin-2-yl)piperazin-1-yl)methyl)-1-(oxetan-2-ylmethyl)-1H-benzo[d]imidazole-6-carboxylic acid]
	75.3	Cn1cc(COc2cccc(N3CCN(Cc4nc5ccc(C(=O)O)cc5n4C[C@@H]4CCO4)CC3)n2)cn1 [Compound 86, (S)-2-((4-(6-((1-methyl-1H-pyrazol-4-yl)methoxy)pyridin-2-yl)piperazin-1-yl)methyl)-1-(oxetan-2-ylmethyl)-1H-benzo[d]imidazole-6-carboxylic acid]
	> 500	N#Cc1ccc2c(c1)CN(c1cccc(N3CCN(Cc4nc5ccc(C(=O)O)cc5n4C[C@@H]4CCO4)CC3)n1)C2 [Compound 57, (S)-2-((4-(6-(5-cyanoisoindolin-2-yl)pyridin-2-yl)piperazin-1-yl)methyl)-1-(oxetan-2-ylmethyl)-1H-benzo[d]imidazole-6-carboxylic acid]
	0.849	O=C(O)c1ccc2nc(CN3CCN(c4cccc(OCc5nc6ccccc6o5)n4)CC3)n(C[C@@H]3CCO3)c2c1 [Compound 67, (S)-2-((4-(6-(benzo[d]oxazol-2-ylmethoxy)pyridin-2-yl)piperazin-1-yl)methyl)-1-(oxetan-2-ylmethyl)-1H-benzo[d]imidazole-6-carboxylic acid]
	0.246	O=C(O)c1ccc2nc(CN3CCN(c4cccc(OCc5nc6ccc(F)cc6s5)n4)CC3)n(C[C@@H]3CCO3)c2c1 [Compound 128, (S)-2-((4-(6-((6-fluorobenzo[d]thiazol-2-yl)methoxy)pyridin-2-yl)piperazin-1-yl)methyl)-1-(oxetan-2-ylmethyl)-1H-benzo[d]imidazole-6-carboxylic acid]
	2770	Cc1cc(OCc2ccccc2)nn1C1CCN(Cc2nc3ccc(C(=O)O)cc3n2C[C@@H]2CCO2)CC1 [Compound 21, (S)-2-((4-(3-(benzyloxy)-5-methyl-1H-pyrazol-1-yl)piperidin-1-yl)methyl)-1-(oxetan-2-ylmethyl)-1H-benzo[d]imidazole-6-carboxylic acid]
	4.58	N#Cc1cc(F)c2c(c1)CCC(c1cccc(N3CCN(Cc4nc5ccc(C(=O)O)cc5n4C[C@@H]4CCO4)CC3)n1)C2 (stereo partly drawn) [Compound 4, 2-((4-(6-(6-cyano-8-fluoro-1,2,3,4-tetrahydronaphthalen-2-yl)pyridin-2-yl)piperazin-1-yl)methyl)-1-((S)-oxetan-2-ylmethyl)-1H-benzo[d]imidazole-6-carboxylic acid]
	> 500	O=C(O)c1ccc2nc(CN3CCN(c4cccc(OCC5CC6(COC6)C5)n4)CC3)n(C[C@@H]3CCO3)c2c1 [Compound 43, (S)-2-((4-(6-((2-oxaspiro[3.3]heptan-6-yl)methoxy)pyridin-2-yl)piperazin-1-yl)methyl)-1-(oxetan-2-ylmethyl)-1H-benzo[d]imidazole-6-carboxylic acid]
	5.11	Cc1cn(C2CCN(Cc3nc4ccc(C(=O)O)cc4n3C[C@@H]3CCO3)CC2)nc1OCc1ccc(C#N)cc1F [Compound 114]
	0.17	N#Cc1ccc(COc2cccc(N3CCN(Cc4nc5ccc(C(=O)O)cc5n4CC4CCS4(=O)=O)CC3)n2)c(F)c1 (single isomer, unassigned) [Compound 140-P2]
> 500		O=C(O)c1ccc2nc(CN3CCN(c4ccc5c(n4)N(Cc4ccccc4)CCC5)CC3)n(C[C@@H]3CCO3)c2c1 [Compound 153, (S)-2-((4-(8-benzyl-5,6,7,8-tetrahydro-1,8-naphthyridin-2-yl)piperazin-1-yl)methyl)-1-(oxetan-2-ylmethyl)-1H-benzo[d]imidazole-6-carboxylic acid]
	> 500	CN1CCC(COc2cccc(N3CCN(Cc4nc5ccc(C(=O)O)cc5n4C[C@@H]4CCO4)CC3)n2)CC1 [Compound 37, (S)-2-((4-(6-((1-methylpiperidin-4-yl)methoxy)pyridin-2-yl)piperazin-1-yl)methyl)-1-(oxetan-2-ylmethyl)-1H-benzo[d]imidazole-6-carboxylic acid]
> 500		O=C(O)c1ccc2nc(CN3CCN(c4ccc5c(n4)N(Cc4ccccc4)C(=O)CC5)CC3)n(C[C@@H]3CCO3)c2c1 [Compound 158, (S)-2-((4-(8-benzyl-7-oxo-5,6,7,8-tetrahydro-1,8-naphthyridin-2-yl)piperazin-1-yl)methyl)-1-(oxetan-2-ylmethyl)-1H-benzo[d]imidazole-6-carboxylic acid]
	16.1	N#Cc1ccc(Cn2ccc3ccc(N4CCN(Cc5nc6ccc(C(=O)O)cc6n5C[C@@H]5CCO5)CC4)nc32)c(F)c1 [Compound 29, (S)-2-((4-(1-(4-cyano-2-fluorobenzyl)-1H-pyrrolo[2,3-b]pyridin-6-yl)piperazin-1-yl)methyl)-1-(oxetan-2-ylmethyl)-1H-benzo[d]imidazole-6-carboxylic acid]
	2.65	O=C(O)c1ccc2nc(CN3CCC(c4cccc(OCc5nccs5)n4)CC3)n(C[C@@H]3CCO3)c2c1 [Compound 139, (S)-1-(oxetan-2-ylmethyl)-2-((4-(6-(thiazol-2-ylmethoxy)pyridin-2-yl)piperidin-1-yl)methyl)-1H-benzo[d]imidazole-6-carboxylic acid]
	0.213	N#Cc1ccc2nc(COc3cccc(N4CCN(Cc5nc6ccc(C(=O)O)cc6n5C[C@@H]5CCO5)CC4)n3)sc2c1 [Compound 110, (S)-2-((4-(6-((6-cyanobenzo[d]thiazol-2-yl)methoxy)pyridin-2-yl)piperazin-1-yl)methyl)-1-(oxetan-2-ylmethyl)-1H-benzo[d]imidazole-6-carboxylic acid]
	7.7	O=C(O)c1ccc2nc(CN3CCN(c4cccc(OCc5cccnc5)n4)CC3)n(C[C@@H]3CCO3)c2c1 [Compound 53, (S)-1-(oxetan-2-ylmethyl)-2-((4-(6-(pyridin-3-ylmethoxy)pyridin-2-yl)piperazin-1-yl)methyl)-1H-benzo[d]imidazole-6-carboxylic acid]
	> 500	N#Cc1ccc(COc2cccc(C3CCN([C@H]4CCn5c4nc4ccc(C(=O)O)cc45)CC3)n2)c(F)c1 (single isomer, unassigned) [Compound 6-P2]
	> 500	O=C(O)c1ccc2nc(CN3CCC(n4nccc4COc4ccccc4)CC3)n(C[C@@H]3CCO3)c2c1 (single isomer, unassigned) [Compound 26-P2]

SMILES	EC50 (Table 3) [nM]	EC50 (Table 2) [nM]
CCn1ccnc1Cn1c(CN2CC[C@@]3(c4cccc(N5CCc6cc(C#N)cc(F)c6C5)n4)C[C@H]3C2)nc2ccc(C(=O)O)cc21 [Compound 163-P1, 2-(((1R,6S)-6-(6-(6-cyano-8-flluoro-3,4-dihydroisoquinolin-2(1H)-yl)pyridin-2-yl)-3-azabicyclo[4.1.0]heptan-3-yl)methyl)-1-((1-ethyl-1H-imidazol-2-yl)methyl)-1H-benzo[d]imidazole-6-carboxylic acid]	0.266	
